Columns and labels:
lignée MCF-7P = assay: MTT cytotoxicity test (cell viability); format: cell-based, humaines; conditions: MCF7-P variant cells; 5 days incubation with compound; MTT readout at 550 nm; calculated from points of Figures 1A, 1B and 2 between 5.10^-7 and 10^-5 moles/l; read-out: IC50 (µmole) MCF7-P
Text: (§1) L'évaluation de la cytotoxicité des isomères "trans" et "cis" du 1-[4-(2-diméthylaminoéthoxy) phényl]-1-(4-hydroxyphényl)-2-ferrocényl-1-butène a fait l'objet de tests sur des lignées de cellules humaines dérivées d'une effusion pleurale d'un adénocarcinome mammaire (lignée MCF-7 ATCC HTB) ainsi que de l'un de ses variants (lignée MCF-7P).
(§2) Ces cellules ont été préalablement cultivées dans du milieu Dulbecco MEM additionné de 10% de sérum de veau foetal et en atmosphère humide (90% d'humidité relative) comprenant 5% de CO2. En phase exponentielle de croissance, ces cellules ont été trypsinées et repiquées dans des plaques de 24 puits de 1 ml à raison de 2.10^5 cellules par puits.
(§3) Après 3 jours d'incubation, les composés à tester ont été ajoutés aux doses appropriées et les plaques ont été mises à incuber pendant 5 jours.
(§4) A l'issue de cette incubation, la viabilité cellulaire des cultures a été déterminée à l'aide du test dit "MTT" consistant à ajouter dans chaque puits 20 µl d'une solution contenant 5 mg de bromure de (diméthyl-4,5-thiazol-2-yl)diphényl-2,5-tétrazolium (MTT) dans 1 ml de tampon PBS, et à laisser incuber les plaques pendant 1 heure à 37°C dans des conditions atmosphériques identiques à celles définies ci-dessus. Le MTT est métabolisé dans les cellules vivantes en un composé bleu insoluble (formazan).
(§5) A l'issue de cette incubation, les puits sont lavés à l'aide de PBS pour éliminer le MTT et les cristaux résiduels de formazan sont repris dans 1 ml de DMSO. La concentration en formazan pour chaque puits est lue par photométrie à une longueur d'onde de 550 nm et comparée à un témoin correspondant à du milieu incubé en présence de MTT mais en l'absence de cellules.

lignée MCF-7 ATCC HTB = assay: MTT cytotoxicity test (cell viability); format: cell-based, humaines; conditions: MCF7 ATCC cells; 5 days incubation with compound; MTT readout at 550 nm; calculated from points of Figures 1A, 1B and 2 between 5.10^-7 and 10^-5 moles/l; read-out: IC50 (µmole) MCF7 ATCC
Text: as §1, §2, §3, §4, §5

SMILES	IC50 (lignée MCF-7P) [µM]	IC50 (lignée MCF-7 ATCC HTB) [µM]
CCC(=C(c1ccc(O)cc1)c1ccc(OCCN(C)C)cc1)[c-]1cccc1.[Fe+2].c1cc[cH-]c1 [Dérivé "cis", 1-[4-(2-diméthylaminoéthoxy)phényl]-1-(4-hydroxyphényl)-2-ferrocényl-1-butène]	5.6	3.4
CCC(=C(c1ccc(O)cc1)c1ccc(OCCN(C)C)cc1)[c-]1cccc1.[Fe+2].c1cc[cH-]c1 [Dérivé "trans", 1-[4-(2-diméthylaminoéthoxy)phényl]-1-(4-hydroxyphényl)-2-ferrocényl-1-butène]	2	4.9
